Data: ChEMBL document CHEMBL3792297, “Studies on phenothiazines: New microtubule-interacting compounds with phenothiazine A-ring as potent antineoplastic agents” (Bioorg Med Chem, 2016)

Legend:
NCI-H23 = assay: Growth inhibition of human NCI-H23 cells at 10 uM after 48 hrs by SRB assay relative to control; assay type: functional; conditions: NCI-H23, 48 h, read-out: GI
786-0 = assay: Growth inhibition of human 786-0 cells at 10 uM after 48 hrs by SRB assay relative to control; assay type: functional; conditions: 786-0, 48 h, read-out: GI
[1] = Growth inhibition of human TK10 cells at 10 uM after 48 hrs by SRB assay relative to control; assay type: functional; conditions: TK-10, 48 h, read-out: GI
[2] = Growth inhibition of human SW620 cells at 10 uM after 48 hrs by SRB assay relative to control; assay type: functional; conditions: SW-620, 48 h, read-out: GI
[3] = Growth inhibition of human Caki1 cells at 10 uM after 48 hrs by SRB assay relative to control; assay type: functional; conditions: CAKI-1, 48 h, read-out: GI
MDA-MB-468 = assay: Growth inhibition of human MDA-MB-468 cells at 10 uM after 48 hrs by SRB assay relative to control; assay type: functional; conditions: MDA-MB-468, 48 h, read-out: GI
[4] = Growth inhibition of human HCT15 cells at 10 uM after 48 hrs by SRB assay relative to control; assay type: functional; conditions: HCT-15, 48 h, read-out: GI
[5] = Growth inhibition of human OVCAR3 cells at 10 uM after 48 hrs by SRB assay relative to control; assay type: functional; conditions: OVCAR-3, 48 h, read-out: GI
U-251 = assay: Growth inhibition of human U251 cells at 10 uM after 48 hrs by SRB assay relative to control; assay type: functional; conditions: U-251, 48 h, read-out: GI
[6] = Growth inhibition of human HL-60(TB) cells at 10 uM after 48 hrs by SRB assay relative to control; assay type: functional; conditions: HL-60, 48 h, read-out: GI
SK-MEL-2 = assay: Growth inhibition of human SK-MEL-2 cells at 10 uM after 48 hrs by SRB assay relative to control; assay type: functional; conditions: SK-MEL-2, 48 h, read-out: GI
K562 = assay: Growth inhibition of human K562 cells at 10 uM after 48 hrs by SRB assay relative to control; assay type: functional; conditions: K562, 48 h, read-out: GI
[7] = Growth inhibition of human RPMI8226 cells at 10 uM after 48 hrs by SRB assay relative to control; assay type: functional; conditions: RPMI-8226, 48 h, read-out: GI
NCI-H226 = assay: Growth inhibition of human NCI-H226 cells at 10 uM after 48 hrs by SRB assay relative to control; assay type: functional; conditions: NCI-H226, 48 h, read-out: GI
A498 = assay: Growth inhibition of human A498 cells at 10 uM after 48 hrs by SRB assay relative to control; assay type: functional; conditions: A498, 48 h, read-out: GI
[8] = Growth inhibition of human SF268 cells at 10 uM after 48 hrs by SRB assay relative to control; assay type: functional; conditions: SF-268, 48 h, read-out: GI
[9] = Growth inhibition of human UO31 cells at 10 uM after 48 hrs by SRB assay relative to control; assay type: functional; conditions: UO-31, 48 h, read-out: GI
[10] = Growth inhibition of human OVCAR8 cells at 10 uM after 48 hrs by SRB assay relative to control; assay type: functional; conditions: OVCAR-8, 48 h, read-out: GI
SN12C = assay: Growth inhibition of human SN12C cells at 10 uM after 48 hrs by SRB assay relative to control; assay type: functional; conditions: read-out: GI
SR = assay: Growth inhibition of human SR cells at 10 uM after 48 hrs by SRB assay relative to control; assay type: functional; conditions: read-out: GI
HT-29 = assay: Growth inhibition of human HT-29 cells at 10 uM after 48 hrs by SRB assay relative to control; assay type: functional; conditions: HT-29, 48 h, read-out: GI
Malme-3M = assay: Growth inhibition of human MALME-3M cells at 10 uM after 48 hrs by SRB assay relative to control; assay type: functional; conditions: read-out: GI
CCRF-CEM = assay: Growth inhibition of human CCRF-CEM cells at 10 uM after 48 hrs by SRB assay relative to control; assay type: functional; conditions: read-out: GI
[11] = Growth inhibition of human BT549 cells at 10 uM after 48 hrs by SRB assay relative to control; assay type: functional; conditions: BT-549, 48 h, read-out: GI
MDA-MB-435 = assay: Growth inhibition of human MDA-MB-435 cells at 10 uM after 48 hrs by SRB assay relative to control; assay type: functional; conditions: MDA-MB-435, 48 h, read-out: GI
[12] = Growth inhibition of human Hs 578T cells at 10 uM after 48 hrs by SRB assay relative to control; assay type: functional; conditions: read-out: GI
[13] = Growth inhibition of human RXF393 cells at 10 uM after 48 hrs by SRB assay relative to control; assay type: functional; conditions: RXF 393, 48 h, read-out: GI
SK-MEL-5 = assay: Growth inhibition of human SK-MEL-5 cells at 10 uM after 48 hrs by SRB assay relative to control; assay type: functional; conditions: SK-MEL-5, 48 h, read-out: GI
[14] = Growth inhibition of human HCT116 cells at 10 uM after 48 hrs by SRB assay relative to control; assay type: functional; conditions: HCT-116, 48 h, read-out: GI
[15] = Growth inhibition of human MOLT4 cells at 10 uM after 48 hrs by SRB assay relative to control; assay type: functional; conditions: MOLT-4, 48 h, read-out: GI
SK-MEL-28 = assay: Growth inhibition of human SK-MEL-28 cells at 10 uM after 48 hrs by SRB assay relative to control; assay type: functional; conditions: SK-MEL-28, 48 h, read-out: GI
[16] = Growth inhibition of human UACC62 cells at 10 uM after 48 hrs by SRB assay relative to control; assay type: functional; conditions: UACC-62, 48 h, read-out: GI
[17] = Growth inhibition of human HOP62 cells at 10 uM after 48 hrs by SRB assay relative to control; assay type: functional; conditions: HOP-62, 48 h, read-out: GI
[18] = Growth inhibition of human HOP92 cells at 10 uM after 48 hrs by SRB assay relative to control; assay type: functional; conditions: HOP-92, 48 h, read-out: GI
KM12 = assay: Growth inhibition of human KM12 cells at 10 uM after 48 hrs by SRB assay relative to control; assay type: functional; conditions: KM12, 48 h, read-out: GI
Ovis aries = organism: Ovis aries; assay: Inhibition of sheep brain tubulin polymerization at 100 uM by DAPI staining-based fluorimetric method
EKVX = assay: Growth inhibition of human EKVX cells at 10 uM after 48 hrs by SRB assay relative to control; assay type: functional; conditions: read-out: GI
M14 = assay: Growth inhibition of human M14 cells at 10 uM after 48 hrs by SRB assay relative to control; assay type: functional; conditions: M14, 48 h, read-out: GI
[19] = Growth inhibition of human SKOV3 cells at 10 uM after 48 hrs by SRB assay relative to control; assay type: functional; conditions: SK-OV-3, 48 h, read-out: GI

SMILES | inhibition of growth at 10 µM (NCI-H23) [%] | inhibition of growth at 10 µM (786-0) [%] | inhibition of growth at 10 µM [1] [%] | inhibition of growth at 10 µM [2] [%] | inhibition of growth at 10 µM [3] [%] | inhibition of growth at 10 µM (MDA-MB-468) [%] | inhibition of growth at 10 µM [4] [%] | inhibition of growth at 10 µM [5] [%] | inhibition of growth at 10 µM (U-251) [%] | inhibition of growth at 10 µM [6] [%] | inhibition of growth at 10 µM (SK-MEL-2) [%] | inhibition of growth at 10 µM (K562) [%] | inhibition of growth at 10 µM [7] [%] | inhibition of growth at 10 µM (NCI-H226) [%] | inhibition of growth at 10 µM [8] [%] | inhibition of growth at 10 µM [9] [%] | inhibition of growth at 10 µM [10] [%] | inhibition of growth at 10 µM (SN12C) [%] | inhibition of growth at 10 µM (SR) [%] | inhibition of growth at 10 µM (HT-29) [%] | also measured
COc1ccc(C(=O)c2ccc3c(c2)Sc2ccccc2N3C)cc1F | 13 | 16 | 8 | 27 | 22 | 55 | 36 | 40 | 18 | 0 | 17 | 61 | 5 | 15 | 2 | 2 | 4 | 13 | 32 | 30 | inhibition of growth at 10 µM (A498): 45%; inhibition of growth at 10 µM (Malme-3M): 24%; inhibition of growth at 10 µM (CCRF-CEM): 12%; inhibition of growth at 10 µM [11]: 58%; inhibition of growth at 10 µM (MDA-MB-435): 87%; inhibition of growth at 10 µM [12]: 7%; inhibition of growth at 10 µM [13]: 11%; inhibition of growth at 10 µM (SK-MEL-5): 13%; inhibition of growth at 10 µM [14]: 17%; inhibition of growth at 10 µM [15]: 17%; inhibition of growth at 10 µM (SK-MEL-28): 13%; inhibition of growth at 10 µM [16]: 26%; inhibition of growth at 10 µM [17]: 17%; inhibition of growth at 10 µM [18]: 17%; inhibition of growth at 10 µM (KM12): 30%
COc1ccc(C(=O)N2c3ccccc3Sc3ccccc32)cc1F | 86 | 64 | 49 | 80 | 48 | 100 | 76 | 100 | 90 | 89 | 100 | 82 | 44 | 30 | 58 | 50 | 97 | 66 | 75 | 100 | inhibition (Ovis aries): 99%; inhibition of growth at 10 µM (Malme-3M): 45%; inhibition of growth at 10 µM (CCRF-CEM): 88%; inhibition of growth at 10 µM [11]: 83%; inhibition of growth at 10 µM [12]: 100%; inhibition of growth at 10 µM [13]: 84%; inhibition of growth at 10 µM (SK-MEL-5): 93%; inhibition of growth at 10 µM (EKVX): 59%; inhibition of growth at 10 µM [14]: 85%; inhibition of growth at 10 µM [15]: 67%; inhibition of growth at 10 µM (SK-MEL-28): 57%; inhibition of growth at 10 µM (M14): 92%; inhibition of growth at 10 µM [16]: 62%; inhibition of growth at 10 µM [17]: 50%; inhibition of growth at 10 µM [18]: 45%; inhibition of growth at 10 µM (KM12): 81%; inhibition of growth at 10 µM [19]: 87%
